Drawing on patent US20220348558A1, “INHIBITORS OF ENCEPHALITIC ALPHAVIRUSES” (priority 2019, published 2022), this text covers EC50 for 21 compounds.

A value given as a limit tells only on which side of the number the result lay.

The subject of one assay is VEEV TC83. Briefly: microbe, parasite or virus in culture. As to conditions: Venezuelan equine encephalitis virus, Vero 76, 48 h, read-out: VEEV TC83 EC50 nM. The assay is classed as cell-based.
The test system of the next assay is WEEV California. Briefly: microbe, parasite or virus in culture. It counts as cell-based. As to conditions: Western equine encephalitis virus, Vero 76, 48 h, read-out: WEEV California EC50 nM.

`COc1ccc(-c2cc(C#N)cc3c(=O)n(-c4ccc(OC)c(F)c4)c(C4CCCN4)nc23)cn1` (stereo not drawn) [Example 125, 3-(3-fluoro-4-methoxyphenyl)-8-(6-methoxypyridin-3-yl)-4-oxo-2-(pyrrolidin-2-yl)-3,4-dihydroquinazoline-6-carbonitrile]: the concentration for a half-maximal effect (EC50) with VEEV TC83 and in the assay on WEEV California was 1 to 50 nM throughout.
Turning to `COc1ccc(-n2c(C3CCCN3)nc3c(-c4ccc(N5CCOCC5)cc4)cc(C#N)cc3c2=O)cc1F` (stereo not drawn) [Example 153, 3-(3-Fluoro-4-methoxyphenyl)-8-(4-morpholinophenyl)-4-oxo-2-(pyrrolidin-2-yl)-3,4-dihydroquinazoline-6-carbonitrile], the EC50 in the assay with VEEV TC83 and in the assay on WEEV California was 1 to 50 nM in each case.
With `COc1ccc(-n2c([C@H]3CC(F)(F)CN3)nc3c(-c4ccc(C)nc4)cc(C#N)cc3c2=O)cc1F` [Example 184, (R)-2-(4,4-difluoropyrrolidin-2-yl)-3-(3-fluoro-4-methoxyphenyl)-8-(6-methylpyridin-3-yl)-4-oxo-3,4-dihydroquinazoline-6-carbonitrile], the EC50 in the assay on VEEV TC83 and in the assay with WEEV California was 51 to 150 nM throughout.
Regarding `COc1ccc(-n2c(C3CCCN3)nc3c(-c4ccc(N5CCOCC5)nc4)cc(C#N)cc3c2=O)cc1F` (stereo not drawn) [Example 124, 3-(3-fluoro-4-methoxyphenyl)-8-(6-morpholinopyridin-3-yl)-4-oxo-2-(pyrrolidin-2-yl)-3,4-dihydroquinazoline-6-carbonitrile], the EC50 in the assay with VEEV TC83 and in the assay on WEEV California was 1 to 50 nM each time.
For `COc1ccc(-n2c(-c3cocn3)nc3c(-c4ccc(C)nc4)cc(C#N)cc3c2=O)cc1F` [Example 197, 3-(3-fluoro-4-methoxyphenyl)-8-(6-methylpyridin-3-yl)-2-(oxazol-4-yl)-4-oxo-3,4-dihydroquinazoline-6-carbonitrile], the EC50 in the assay on VEEV TC83 was 501 to 1000 nM; in the assay with WEEV California, above 1000 nM.
The corresponding values for `COc1ccc(-n2c([C@H]3CCCN3C)nc3c(-c4cn(C)cn4)cc(C#N)cc3c2=O)cc1F` [Example 98, (R)-3-(3-fluoro-4-methoxyphenyl)-8-(1-methyl-1H-imidazol-4-yl)-2-(1-methylpyrrolidin-2-yl)-4-oxo-3,4-dihydroquinazoline-6-carbonitrile] are 1 to 50 nM and 1 to 50 nM.
The corresponding values for `COc1ccc(-n2c(C3CCCN3)nc3c(-c4ccc(OC)c(OC)c4)cc(C#N)cc3c2=O)cc1F` (stereo not drawn) [Example 152, 8-(3,4-Dimethoxyphenyl)-3-(3-fluoro-4-methoxyphenyl)-4-oxo-2-(pyrrolidin-2-yl)-3,4-dihydroquinazoline-6-carbonitrile] are 1 to 50 nM and 1 to 50 nM.
Regarding `COc1c(F)cc(-n2c(C3CCCN3)nc3c(-c4ccc(C#CCO)cc4)cc(C#N)cc3c2=O)cc1F` (stereo not drawn) [Example 169, 3-(3,5-difluoro-4-methoxyphenyl)-8-(4-(3-hydroxyprop-1-yn-1-yl)phenyl)-4-oxo-2-(pyrrolidin-2-yl)-3,4-dihydroquinazoline-6-carbonitrile], the EC50 with VEEV TC83 and in the assay on WEEV California was 51 to 150 nM throughout.
Regarding `COc1ccc(-n2c([C@@H]3CCCN3)nc3c(C)cc([N+](=O)[O-])cc3c2=O)cc1` [Example 56, (S)-3-(4-methoxyphenyl)-8-methyl-6-nitro-2-(pyrrolidin-2-yl) quinazolin-4 (3H)-one], the EC50 in the assay on VEEV TC83 is 1 to 50 nM; with WEEV California, 51 to 150 nM.
For `COc1ccc(-n2c(C3CCCN3)nc3c(-c4ccc(OC(F)(F)F)cc4)cc(C#N)cc3c2=O)cc1F` (stereo not drawn) [Example 151, 3-(3-Fluoro-4-methoxyphenyl)-4-oxo-2-(pyrrolidin-2-yl)-8-(4-(trifluoromethoxy)phenyl)-3,4-dihydroquinazoline-6-carbonitrile] the same measures were 1 to 50 nM and 1 to 50 nM.
The corresponding values for `COc1ccc(-n2c(C3CCCN3)nc3c(-c4ccc(S(C)(=O)=O)cc4)cc(C#N)cc3c2=O)cc1F` (stereo not drawn) [Example 136, 3-(3-fluoro-4-methoxyphenyl)-8-(4-(methylsulfonyl)phenyl)-4-oxo-2-(pyrrolidin-2-yl)-3,4-dihydroquinazoline-6-carbonitrile] are 1 to 50 nM and 1 to 50 nM.
On to `CN1CCC(N2CCC[C@@H]2c2nc3ccc([N+](=O)[O-])cc3c(=O)n2-c2ccccc2)CC1` [Example 4, (R)-2-(1-(1-methylpiperidin-4-yl)pyrrolidin-2-yl)-6-nitro-3-phenylquinazolin-4 (3H)-one], for which the EC50 was 151 to 500 nM in the assay on VEEV TC83 and above 1000 nM in the assay with WEEV California.
As for `COc1ccc(-n2c(C3CCCN3)nc3ccc([N+](=O)[O-])cc3c2=O)cc1` (stereo not drawn) [Example 8, 3-(4-methoxyphenyl)-6-nitro-2-(pyrrolidin-2-yl) quinazolin-4 (3H)-one], the concentration giving a half-maximal response (EC50) in the assay on VEEV TC83 and in the assay with WEEV California was 1 to 50 nM each time.
As to `Cc1cc([N+](=O)[O-])cc2c(=O)n(-c3ccc(Cl)c(F)c3)c([C@H]3CCCN3)nc12` [Example 60, (R)-3-(4-chloro-3-fluorophenyl)-8-methyl-6-nitro-2-(pyrrolidin-2-yl) quinazolin-4 (3H)-one], the EC50 in the assay with VEEV TC83 and in the assay with WEEV California was 1 to 50 nM in each case.
For the compound `COc1ccc(-n2c([C@H]3CCCN3)nc3c(Br)cc([N+](=O)[O-])cc3c2=O)cc1` [Example 80, (R)-8-bromo-3-(4-methoxyphenyl)-6-nitro-2-(pyrrolidin-2-yl) quinazolin-4 (3H)-one], the EC50 with VEEV TC83 and in the assay on WEEV California was 1 to 50 nM throughout.
As to `COc1ccc(-n2c([C@H]3CCCN3)nc3ccc(C#N)cc3c2=O)cc1` [Example 14, (R)-3-(4-methoxyphenyl)-4-oxo-2-(pyrrolidin-2-yl)-3,4-dihydroquinazoline-6-carbonitrile], the EC50 in the assay with VEEV TC83 was in the range of 1 to 50 nM; in the assay on WEEV California it was 51 to 150 nM.
For `Cc1ccccc1-n1c([C@H]2CCCN2)nc2ccc([N+](=O)[O-])cc2c1=O` [Example 35, (R)-6-nitro-2-(pyrrolidin-2-yl)-3-(o-tolyl)quinazolin-4 (3H)-one] the same measures were above 1000 nM and above 1000 nM.
The corresponding values for `COc1ccc(-n2c([C@H]3CCCN3)nc3cc(C)c([N+](=O)[O-])cc3c2=O)cc1` [Example 43, (R)-3-(4-methoxyphenyl)-7-methyl-6-nitro-2-(pyrrolidin-2-yl) quinazolin-4 (3H)-one] are 1 to 50 nM and 1 to 50 nM.
For `COCCOc1c(F)cc(-n2c(C3CCCN3)nc3c(-c4cc(C)nc(C)c4)cc(C#N)cc3c2=O)cc1F` (stereo not drawn) [Example 162, 3-(3,5-difluoro-4-(2-methoxyethoxy)phenyl)-8-(2,6-dimethylpyridin-4-yl)-4-oxo-2-(pyrrolidin-2-yl)-3,4-dihydroquinazoline-6-carbonitrile], the EC50 in the assay with VEEV TC83 and with WEEV California was 51 to 150 nM in each case.
Regarding `COc1ccc(-n2c(C3CCCN3)nc3c(-c4cnc5ccccc5c4)cc(C#N)cc3c2=O)cc1F` (stereo not drawn) [Example 123, 3-(3-fluoro-4-methoxyphenyl)-4-oxo-2-(pyrrolidin-2-yl)-8-(quinolin-3-yl)-3,4-dihydroquinazoline-6-carbonitrile], the EC50 with VEEV TC83 and in the assay on WEEV California was 1 to 50 nM throughout.
Regarding `COc1ccc(-n2c([C@H]3CCCN3)nc3c(-c4ccncc4)cc([N+](=O)[O-])cc3c2=O)cc1F` [Example 82, (R)-3-(3-fluoro-4-methoxyphenyl)-6-nitro-8-(pyridin-4-yl)-2-(pyrrolidin-2-yl) quinazolin-4 (3H)-one], the EC50 in the assay on VEEV TC83 and in the assay on WEEV California was 1 to 50 nM each time.
